Experimental data taken from patent publication US9683018B2, “Disulfide cyclic polypeptides for the treatment of heart failure” (priority 2013, dated 2017).
Bridge positions count the residues as written; N and C are the ends. Square brackets hold non-standard residues; d marks the D form. Peptide text beside a SMILES is read from it. pGlu = O=C1CC[C@@H](C(=O)O)N1; d(hCys) = N[C@H](CCS)C(=O)O; dNle = CCCC[C@@H](N)C(=O)O; hCys = N[C@@H](CCS)C(=O)O; Nle = CCCC[C@H](N)C(=O)O; Aib = CC(C)(N)C(=O)O; Inp = O=C(O)C1CCNCC1

Legend:
[1] = in vitro; settings: rat, plasma, Surrogate activity-based Plasma stability t½
Description: The calcium flux protocol described above was followed, with the following changes. The peptides were also incubated with 5% rat plasma (Bioreclamation # [sequence]-M, Na Heparin-treated). Readings were taken at time points t0 and t24 hrs, after incubation in a 37° C. tissue culture incubator. Peptide plasma half-life in minutes was estimated by calculating the following:
2) Calculate slope of value above and

[2] = target: T1, hAPJ (Homo sapiens, UniProt P35414); assay: hAPJ Calcium Flux Assay; type: cell-based; settings: Chem-5 APJ stable cells, FLIPR calcium flux; read-out: hAPJ Ca2+ Flux EC50
T1 sequence (P35414 1-380): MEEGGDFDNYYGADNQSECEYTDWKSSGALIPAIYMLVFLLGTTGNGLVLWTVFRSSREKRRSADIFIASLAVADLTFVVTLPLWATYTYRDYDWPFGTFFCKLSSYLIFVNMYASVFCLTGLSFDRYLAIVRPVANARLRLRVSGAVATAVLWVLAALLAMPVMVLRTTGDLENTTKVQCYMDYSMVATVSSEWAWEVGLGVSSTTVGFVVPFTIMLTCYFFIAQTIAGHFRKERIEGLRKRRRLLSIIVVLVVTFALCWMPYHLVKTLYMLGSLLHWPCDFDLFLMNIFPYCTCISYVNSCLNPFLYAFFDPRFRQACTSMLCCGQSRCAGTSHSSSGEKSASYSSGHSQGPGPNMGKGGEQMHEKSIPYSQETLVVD
Description: Chem-5 APJ stable cells (Millipore # HTS068C) were plated in 384-well format with 10,000 cells/well in 25 ul growth media, then grown 24 hours in a 37° C. tissue culture incubator. One hour before the assay, 25 ul/well FLIPR Calcium 4 dye (Molecular Devices R8142) with 2.5 mM probenecid was added, and cells were incubated one hour in a 37° C. tissue culture incubator. Peptides were solubilized in HBSS, HEPES & 0.1% BSA buffer, and serially-diluted 10-fold, from 50 uM to 5 pM, in triplicate. FLIPR Tetra was used to add peptide to the cells with dye (1:5, for final peptide concentrations ranging from 10 uM to 1 pM). FLIPR dye inside the cells emitted fluorescence after binding to calcium, while fluorescence from outside the cells was masked. Fluorescence was measured using 470-495 excitation and 515-575 emission wavelengths on the FLIPR Tetra. Readings were done for 3 minutes total, beginning 10 seconds before the peptide addition. Maximum-minimum values were calculated and plotted for each peptide concentration, and GraphPad prism software was used to calculate EC50 values at the curve inflection points, for calcium flux stimulation by peptides.

SMILES	half-life [1] [h]	EC50 [2] [nM]
CCCC[C@H]1NC(=O)[C@@H]2CCCN2C(=O)CNC(=O)[C@H](CCCCN)NC(=O)[C@H](Cc2c[nH]cn2)NC(=O)[C@H](CO)NC(=O)[C@@H](NC(=O)[C@H](CCCNC(=N)N)NC(=O)[C@@H]2CCCN2C(=O)[C@H](CCCNC(=N)N)NC(=O)[C@@H]2CCC(=O)N2)CCSSC[C@@H](C(=O)N[C@H](Cc2ccc(O)cc2)C(=O)O)NC1=O [Example 2, pE-R-P-R-hC*-S-H-K-G-P-(D-Nle)-C*-y-OH] ([pGlu]RPR[hCys]SHKGP[dNle]C[dY]-OH; disulfide 5-12)	0.867	154
CCCC[C@@H]1NC(=O)[C@@H]2CCCN2C(=O)CNC(=O)[C@H](CCCCN)NC(=O)[C@H](NC(=O)[C@H](CO)NC(=O)[C@H](CC(C)C)NC(=O)[C@H](CCCNC(=N)N)NC(=O)[C@@H]2CCCN2C(=O)[C@H](CCCNC(=N)N)NC(=O)[C@@H]2CCC(=O)N2)CCSSC[C@@H](C(=O)O)NC1=O [Example 10, pE-R-P-R-L-S-(D-hC)*-K-G-P-Nle-C*-OH] ([pGlu]RPRLS[d(hCys)]KGP[Nle]C-OH; disulfide 7-12)	1.64	976
CCCC[C@@H]1NC(=O)[C@@H]2CCCN2C(=O)CNC(=O)[C@H](CCCCN)NC(=O)[C@@H](NC(=O)[C@H](CO)NC(=O)[C@H](CC(C)C)NC(=O)[C@H](CCCNC(=N)N)NC(=O)[C@@H]2CCCN2C(=O)[C@H](CCCNC(=N)N)NC(=O)[C@@H]2CCC(=O)N2)CSSC[C@H](C(=O)N[C@@H](Cc2ccccc2)C(=O)O)NC1=O [Example 11, pE-R-P-R-L-S-C*-K-G-P-Nle-c*-F-OH] ([pGlu]RPRLSCKGP[Nle][dC]F-OH; disulfide 7-12)	2.28	113
CCCC[C@@H]1NC(=O)[C@@H]2CCCN2C(=O)[C@@H](NC(=O)[C@H](CCCCN)NC(=O)[C@@H](C)NC(=O)[C@H](CO)NC(=O)[C@H](CC(C)C)NC(=O)[C@H](CCCNC(=N)N)NC(=O)[C@@H]2CCCN2C(=O)[C@H](CCCNC(=N)N)NC(=O)[C@@H]2CCC(=O)N2)CSSC[C@@H](C(=O)N[C@H](Cc2ccccc2)C(=O)O)NC1=O [Example 16, pE-R-P-R-L-S-a-K-C*-P-Nle-C*-f-OH] ([pGlu]RPRLS[dA]KCP[Nle]C[dF]-OH; disulfide 9-12)	5.38	33.2
CCCC[C@@H]1NC(=O)[C@@H]2CCCN2C(=O)[C@@H](NC(=O)[C@H](CCCCN)NC(=O)[C@H](Cc2c[nH]cn2)NC(=O)[C@@H](C)NC(=O)[C@H](CC(C)C)NC(=O)[C@H](CCCNC(=N)N)NC(=O)[C@@H]2CCCN2C(=O)[C@H](CCCNC(=N)N)NC(=O)C2CCNCC2)CSSC[C@@H](C(=O)N[C@H](Cc2ccccc2)C(=O)O)NC1=O [Example 18, Isonipecotoyl-R-P-R-L-a-H-K-C*-P-Nle-C*-f-OH] (H-[Inp]RPRL[dA]HKCP[Nle]C[dF]-OH; disulfide 9-12)	16.5	2.3
CCCC[C@@H]1NC(=O)[C@@H]2CCCN2C(=O)[C@@H](NC(=O)[C@H](CCCCN)NC(=O)C(C)(C)NC(=O)[C@@H](C)NC(=O)[C@H](CC(C)C)NC(=O)[C@H](CCCNC(=N)N)NC(=O)[C@@H]2CCCN2C(=O)[C@H](CCCNC(=N)N)NC(=O)[C@@H]2CCC(=O)N2)CSSC[C@@H](C(=O)N[C@H](Cc2ccccc2)C(=O)O)NC1=O [Example 19, pE-R-P-R-L-a-Aib-K-C*-P-Nle-C*-f-OH] ([pGlu]RPRL[dA][Aib]KCP[Nle]C[dF]-OH; disulfide 9-12)	36.4	72.3
CCCC[C@@H]1NC(=O)[C@@H]2CCCN2C(=O)[C@@H](NC(=O)[C@H](CCCCN)NC(=O)C(C)(C)NC(=O)[C@H](CO)NC(=O)[C@H](CC(C)C)NC(=O)[C@H](CCCNC(=N)N)NC(=O)[C@@H]2CCCN2C(=O)[C@H](CCCNC(=N)N)NC(=O)[C@@H]2CCC(=O)N2)CSSC[C@@H](C(=O)N[C@H](Cc2ccccc2)C(=O)O)NC1=O [Example 20, pE-R-P-R-L-S-Aib-K-C*-P-Nle-C*-f-OH] ([pGlu]RPRLS[Aib]KCP[Nle]C[dF]-OH; disulfide 9-12)	5.52	6.1

Results, then the compound that gave them:

half-life [1] [h]	EC50 [2] [nM]	SMILES
0.403	406	CCCC[C@@H]1NC(=O)[C@@H]2CCCN2C(=O)CNC(=O)[C@H](CCCCN)NC(=O)[C@@H](NC(=O)[C@H](CO)NC(=O)[C@H](CC(C)C)NC(=O)[C@H](CCCNC(=N)N)NC(=O)[C@@H]2CCCN2C(=O)[C@H](CCCNC(=N)N)NC(=O)[C@@H]2CCC(=O)N2)CSSCC[C@H](C(=O)N[C@@H](Cc2ccccc2)C(=O)O)NC1=O [Example 4, pE-R-P-R-L-S-C*-K-G-P-Nle-(D-hC)*-F-OH] ([pGlu]RPRLSCKGP[Nle][d(hCys)]F-OH; disulfide 7-12)
23.9	981	CCCC[C@@H]1NC(=O)[C@@H]2CCCN2C(=O)CNC(=O)[C@H](CCCCN)NC(=O)[C@H](NC(=O)[C@H](CO)NC(=O)[C@H](CC(C)C)NC(=O)[C@H](CCCNC(=N)N)NC(=O)[C@@H]2CCCN2C(=O)[C@H](CCCNC(=N)N)NC(=O)[C@@H]2CCC(=O)N2)CSSCC[C@H](C(=O)N[C@@H](Cc2ccccc2)C(=O)O)NC1=O [Example 5, pE-R-P-R-L-S-c*-K-G-P-Nle-(D-hC)*-F-OH] ([pGlu]RPRLS[dC]KGP[Nle][d(hCys)]F-OH; disulfide 7-12)
0.208	92.8	CCCC[C@@H]1NC(=O)[C@@H]2CCCN2C(=O)CNC(=O)[C@H](CCCCN)NC(=O)[C@@H](NC(=O)[C@H](CO)NC(=O)[C@H](CC(C)C)NC(=O)[C@H](CCCNC(=N)N)NC(=O)[C@@H]2CCCN2C(=O)[C@H](CCCNC(=N)N)NC(=O)[C@@H]2CCC(=O)N2)CCSSCC[C@H](C(=O)N[C@@H](Cc2ccccc2)C(=O)O)NC1=O [Example 6, pE-R-P-R-L-S-hC*-K-G-P-Nle-(D-hC)*-F-OH] ([pGlu]RPRLS[hCys]KGP[Nle][d(hCys)]F-OH; disulfide 7-12)
2.01	781	CCCC[C@@H]1NC(=O)[C@@H]2CCCN2C(=O)CNC(=O)[C@H](CCCCN)NC(=O)[C@H](NC(=O)[C@H](CO)NC(=O)[C@H](CC(C)C)NC(=O)[C@H](CCCNC(=N)N)NC(=O)[C@@H]2CCCN2C(=O)[C@H](CCCNC(=N)N)NC(=O)[C@@H]2CCC(=O)N2)CCSSCC[C@H](C(=O)N[C@@H](Cc2ccccc2)C(=O)O)NC1=O [Example 7, pE-R-P-R-L-S-(D-hC)*-K-G-P-Nle-(D-hC)*-F-OH] ([pGlu]RPRLS[d(hCys)]KGP[Nle][d(hCys)]F-OH; disulfide 7-12)
1.29	613	CCCC[C@@H]1NC(=O)[C@@H]2CCCN2C(=O)CNC(=O)[C@H](CCCCN)NC(=O)[C@H](NC(=O)[C@H](CO)NC(=O)[C@H](CC(C)C)NC(=O)[C@H](CCCNC(=N)N)NC(=O)[C@@H]2CCCN2C(=O)[C@H](CCCNC(=N)N)NC(=O)[C@@H]2CCC(=O)N2)CCSSC[C@@H](C(=O)N[C@@H](Cc2ccccc2)C(=O)O)NC1=O [Example 8, pE-R-P-R-L-S-(D-hC)*-K-G-P-Nle-C*-F-OH] ([pGlu]RPRLS[d(hCys)]KGP[Nle]CF-OH; disulfide 7-12)
0.95	1030	CCCC[C@@H]1NC(=O)[C@@H]2CCCN2C(=O)CNC(=O)[C@H](CCCCN)NC(=O)[C@H](NC(=O)[C@H](CO)NC(=O)[C@H](CC(C)C)NC(=O)[C@H](CCCNC(=N)N)NC(=O)[C@@H]2CCCN2C(=O)[C@H](CCCNC(=N)N)NC(=O)[C@@H]2CCC(=O)N2)CCSSCC[C@@H](C(=O)N[C@@H](Cc2ccccc2)C(=O)O)NC1=O [Example 9, pE-R-P-R-L-S-(D-hC)*-K-G-P-Nle-hC*-F-OH] ([pGlu]RPRLS[d(hCys)]KGP[Nle][hCys]F-OH; disulfide 7-12)
1.17	81.7	CCCC[C@@H]1NC(=O)[C@@H]2CCCN2C(=O)CNC(=O)[C@H](CCCCN)NC(=O)[C@@H](NC(=O)[C@H](CO)NC(=O)[C@H](CC(C)C)NC(=O)[C@H](CCCNC(=N)N)NC(=O)[C@@H]2CCCN2C(=O)[C@H](CCCNC(=N)N)NC(=O)[C@@H]2CCC(=O)N2)CSSCC[C@@H](C(=O)N[C@@H](Cc2ccccc2)C(=O)O)NC1=O [Example 12, pE-R-P-R-L-S-C*-K-G-P-Nle-hC*-F-OH] ([pGlu]RPRLSCKGP[Nle][hCys]F-OH; disulfide 7-12)
1.73	760	CCCC[C@@H]1NC(=O)[C@@H]2CCCN2C(=O)CNC(=O)[C@H](CCCCN)NC(=O)[C@@H](NC(=O)[C@H](CO)NC(=O)[C@H](CC(C)C)NC(=O)[C@H](CCCNC(=N)N)NC(=O)[C@@H]2CCCN2C(=O)[C@H](CCCNC(=N)N)NC(=O)[C@@H]2CCC(=O)N2)CCSSCC[C@@H](C(=O)N[C@@H](Cc2ccccc2)C(=O)O)NC1=O [Example 13, pE-R-P-R-L-S-hC*-K-G-P-Nle-hC*-F-OH] ([pGlu]RPRLS[hCys]KGP[Nle][hCys]F-OH; disulfide 7-12)
